From ChEMBL document CHEMBL6096677, “Discovery of HZS60 as a Novel Brain Penetrant NMDAR/TRPM4 Interaction Interface Inhibitor with Improved Activity and Pharmacokinetic Properties for the Treatment of Cerebral Ischemia” (J Med Chem, 2025)

test system: Cortical neurone; assay: Neuroprotective activity against NMDA-induced excitotoxic cell death in C57BL/6 mouse primary cortical neurons assessed as cell viability at 10 uM by CCK8 assay (reference value: 16.31 +/- 3.19 %); assay type: functional; conditions: C57BL/6, Cortical neurone, read-out: Activity

| SMILES | viability at 10 µM |
| --- | --- |
| CCN(CCNC)Cc1cccc(Br)c1 | 17.6% |
| CCN(CCN1CCCC1)Cc1cccc(Br)c1 | 19.3% |
| CCN(CCN)Cc1cc(F)cc(Br)c1 | 18.3% |
| CCN(CCN)Cc1cccc(C#N)c1F | 79.7% |
| CCN(CCN)C(C)c1c(Cl)ccc(C#N)c1F (configuration not stated) | 64.5% |
| CCN(CCN)Cc1ccc(Br)c(C#N)c1 | 22.2% |
| CCN(CCN)C(C)(C)c1cccc(Br)c1 | 52.5% |
| NC1CCN(Cc2cccc(Br)c2)C1 (configuration not stated) | 20.1% |
| CCN(CCN)C(C)c1c(F)ccc(Br)c1F (configuration not stated) | 51.6% |
| CCN(CCN)Cc1cc(C#N)ccc1Cl | 86.5% |
| CCN(CCN(C)C)Cc1cccc(Br)c1 | 18.4% |
| CCN(CCN)Cc1cc(Br)ccc1F | 87.1% |
| CCN(CCN)Cc1cccc(C#N)c1 | 92.4% |
| CCN(CCN)Cc1cccc(Br)c1Br | 86.5% |
| CCN(CCN)Cc1cc(C#N)ccc1F | 68.1% |
| CCN(CCN)Cc1cccc([N+](=O)[O-])c1 | 36% |
| CCN(CCN)Cc1cc(F)cc(C#N)c1 | 24% |
| CCN(CCN)Cc1cccc(C(F)(F)F)c1 | 16.9% |
| CCN(CCN)C(C)c1cccc(C#N)c1Cl (configuration not stated) | 85.3% |
| CCN(CCN)Cc1cccc(Cl)c1 | 44.3% |
| CCN(CCN)Cc1cccc(I)c1 | 44% |

| SMILES | viability at 10 µM |
| --- | --- |
| CCN(CCN)Cc1cccc(Br)c1F | 86.5% |
| CCN(CCN)Cc1cccc(C)c1 | 22.7% |
| CCN(CCN)Cc1cccc(Br)c1Cl | 47.1% |
| CCN(CCN)Cc1cccc(C#N)c1Br | 76.5% |
| CCN(CCN)Cc1cccc(OC)c1 | 39.6% |
| CCN(CCN)Cc1cc(Br)cc(C#N)c1 | 33% |
| CCN(CCN)C(C)c1cccc(C#N)c1F (configuration not stated) | 70.4% |
| CCN(CCN)C(C)c1cccc(C#N)c1 (configuration not stated) | 85.7% |
| CCN(CCCN)Cc1cccc(Br)c1 | 10.8% |
| CCN(CCN)Cc1cccc(F)c1 | 32% |
| CCN(CCN)Cc1cccc(-c2ccccc2)c1 | 24.9% |
| CCN(CCN)Cc1c(F)ccc(Br)c1F | 97.9% |
| CCN(CCN)Cc1ccccc1Br | 46.2% |
| CCN(CCN)Cc1cc(Br)ccc1Cl | 84.9% |
| CCN(CCN)C(C)c1cc(C#N)ccc1Br (configuration not stated) | 55% |
| CCN(CCN)Cc1ccc(F)c(C#N)c1 | 24.1% |
| CCN(CCN)Cc1ccc(F)c(Br)c1 | 26.6% |
| CCN(CCN)Cc1cccc(Br)c1I | 11.5% |
| CCC(c1cccc(Br)c1)N(CC)CCN (configuration not stated) | 38.3% |
| CCN(CCN)C(C)c1cc(C#N)ccc1Cl (configuration not stated) | 77.7% |
| CCN(CCN)C(C)c1cccc(C#N)c1Br (configuration not stated) | 67.4% |

| SMILES | viability at 10 µM |
| --- | --- |
| CCN(CCN)C(C)c1cc(Br)ccc1Br (configuration not stated) | 46.6% |
| CCN(CCN)Cc1c(F)ccc(C#N)c1Cl | 88% |
| CCN(CCN)Cc1ccc(Br)cc1 | 21.2% |
| CCCN(CCN)Cc1cccc(Br)c1 | 44.6% |
| CCN(CCN)C(C)c1cccc(Br)c1 (configuration not stated) | 95.9% |
| CCN(CCN)Cc1ccc(Cl)c(C#N)c1 | 22.6% |
| CCN(CCN)Cc1c(Cl)ccc(C#N)c1F | 82.9% |
| CCN(CCN)Cc1cc(Br)ccc1Br | 83.4% |
| CCN(CCN)Cc1cc(C#N)ccc1Br | 77.8% |
| CCN(CCN)C(C)c1cc(Br)ccc1Cl (configuration not stated) | 81.6% |
| NC1CCCN(Cc2cccc(Br)c2)C1 (configuration not stated) | 33% |
| CCN(CCN)C(C)c1cccc(Br)c1F (configuration not stated) | 77% |
| CCN(CCN)Cc1cccc(C#N)c1Cl | 93.1% |
| CCN(CCN)Cc1c(F)ccc(C#N)c1F | 90.4% |
| CCN(CCN)C(C)c1cc(Br)ccc1F (configuration not stated) | 90.7% |
| CCN(CCN)Cc1cccc(Br)c1 | 63.2% |
| CCN(CCN)C(C)c1cc(C#N)ccc1F (configuration not stated) | 82.4% |
| CCN(CCN)Cc1cc(C#N)ccc1I | 74.6% |
| CCN(CCN)C1(c2cccc(Br)c2)CC1 | 39.1% |
| CCN(CCN)C(C)c1c(F)ccc(C#N)c1Cl (configuration not stated) | 70.5% |

test system: Cortical neurone; assay: Neuroprotective activity against OGD/R-induced ischemic injury in C57BL/6 mouse primary cortical neurons assessed as cell viability at 10 uM by CCK8 assay (reference value: 21.96 +/- 10.86 %); assay type: functional; conditions: C57BL/6, Cortical neurone, read-out: Activity

| SMILES | viability at 10 µM |
| --- | --- |
| CCN(CCN)C(C)c1c(Cl)ccc(C#N)c1F (configuration not stated) | 38.8% |
| CCN(CCN)C(C)c1cccc(C#N)c1Cl (configuration not stated) | 59.8% |
| CCN(CCN)C(C)c1cccc(C#N)c1F (configuration not stated) | 44.5% |
| CCN(CCN)C(C)c1cccc(C#N)c1 (configuration not stated) | 69.7% |
| CCN(CCN)C(C)c1cc(C#N)ccc1Cl (configuration not stated) | 61.1% |
| CCN(CCN)C(C)c1cccc(C#N)c1Br (configuration not stated) | 43.2% |
| CCN(CCN)C(C)c1cccc(Br)c1 (configuration not stated) | 53.2% |
| CCN(CCN)C(C)c1cc(Br)ccc1Cl (configuration not stated) | 46.6% |
| CCN(CCN)C(C)c1cccc(Br)c1F (configuration not stated) | 55.6% |
| CCN(CCN)C(C)c1cc(Br)ccc1F (configuration not stated) | 36.6% |
| CCN(CCN)Cc1cccc(Br)c1 | 26.5% |
| CCN(CCN)C(C)c1cc(C#N)ccc1F (configuration not stated) | 34.6% |
| CCN(CCN)C(C)c1c(F)ccc(C#N)c1Cl (configuration not stated) | 64.3% |

test system: not listed separately; assay: Half life in ICR mouse at 5 mg/kg, iv by LC-MS/MS analysis; assay type: ADME, organism-based; conditions: in vivo

| SMILES | half-life |
| --- | --- |
| CCN(CCN)Cc1cccc(Br)c1 | 1.82 h |

test system: not listed separately; assay: Tmax in ICR mouse at 5 mg/kg, iv by LC-MS/MS analysis; assay type: ADME, organism-based; conditions: in vivo

| SMILES | Tmax |
| --- | --- |
| CCN(CCN)Cc1cccc(Br)c1 | 4.98 min |

test system: not listed separately; assay: Cmax in ICR mouse at 5 mg/kg, iv by LC-MS/MS analysis; assay type: ADME, organism-based; conditions: in vivo

| SMILES | Cmax |
| --- | --- |
| CCN(CCN)Cc1cccc(Br)c1 | 0.207 µg/mL |

test system: not listed separately; assay: AUC (0 to t) in ICR mouse at 5 mg/kg, iv by LC-MS/MS analysis; assay type: ADME, organism-based; conditions: in vivo

| SMILES | AUC(0-t) |
| --- | --- |
| CCN(CCN)Cc1cccc(Br)c1 | 0.282 µg·h/mL |

test system: not listed separately; assay: AUC (0 to infinity) in ICR mouse at 5 mg/kg, iv by LC-MS/MS analysis; assay type: ADME, organism-based; conditions: in vivo

| SMILES | AUC(0-inf) |
| --- | --- |
| CCN(CCN)Cc1cccc(Br)c1 | 0.295 µg·h/mL |

test system: not listed separately; assay: Apparent volume of distribution in ICR mouse at 5 mg/kg, iv by LC-MS/MS analysis; assay type: ADME, organism-based; conditions: in vivo, read-out: Vz

| SMILES | Vd |
| --- | --- |
| CCN(CCN)Cc1cccc(Br)c1 | 44.1 L/kg |

test system: not listed separately; assay: Clearance in ICR mouse at 5 mg/kg, iv by LC-MS/MS analysis; assay type: ADME, organism-based; conditions: in vivo

| SMILES | clearance |
| --- | --- |
| CCN(CCN)Cc1cccc(Br)c1 | 17.6 L/h/kg |

test system: not listed separately; assay: MRT (0 to t) in ICR mouse at 5 mg/kg, iv by LC-MS/MS analysis; assay type: ADME, organism-based; conditions: in vivo

| SMILES | MRT last |
| --- | --- |
| CCN(CCN)Cc1cccc(Br)c1 | 1.76 h |

test system: not listed separately; assay: MRT (0 to infinity) in ICR mouse at 5 mg/kg, iv by LC-MS/MS analysis; assay type: ADME, organism-based; conditions: in vivo

| SMILES | MRT inf |
| --- | --- |
| CCN(CCN)Cc1cccc(Br)c1 | 2.15 h |

test system: not listed separately; assay: Half life in ICR mouse at 25 mg/kg, IG by LC-MS/MS analysis; assay type: ADME, organism-based; conditions: in vivo, po

| SMILES | half-life |
| --- | --- |
| CCN(CCN)Cc1cccc(Br)c1 | 2.07 h |

test system: not listed separately; assay: Tmax in ICR mouse at 25 mg/kg, IG by LC-MS/MS analysis; assay type: ADME, organism-based; conditions: in vivo, po

| SMILES | Tmax |
| --- | --- |
| CCN(CCN)Cc1cccc(Br)c1 | 0.583 h |

test system: not listed separately; assay: Cmax in ICR mouse at 25 mg/kg, IG by LC-MS/MS analysis; assay type: ADME, organism-based; conditions: in vivo, po

| SMILES | Cmax |
| --- | --- |
| CCN(CCN)Cc1cccc(Br)c1 | 0.348 µg/mL |

test system: not listed separately; assay: AUC (0 to t) in ICR mouse at 25 mg/kg, IG by LC-MS/MS analysis; assay type: ADME, organism-based; conditions: in vivo, po

| SMILES | AUC(0-t) |
| --- | --- |
| CCN(CCN)Cc1cccc(Br)c1 | 0.914 µg·h/mL |

test system: not listed separately; assay: AUC (0 to infinity) in ICR mouse at 25 mg/kg, IG by LC-MS/MS analysis; assay type: ADME, organism-based; conditions: in vivo, po

| SMILES | AUC(0-inf) |
| --- | --- |
| CCN(CCN)Cc1cccc(Br)c1 | 0.98 µg·h/mL |

test system: not listed separately; assay: MRT (0 to t) in ICR mouse at 25 mg/kg, IG by LC-MS/MS analysis; assay type: ADME, organism-based; conditions: in vivo, po

| SMILES | MRT last |
| --- | --- |
| CCN(CCN)Cc1cccc(Br)c1 | 2.38 h |

test system: not listed separately; assay: MRT (0 to infinity) in ICR mouse at 25 mg/kg, IG by LC-MS/MS analysis; assay type: ADME, organism-based; conditions: in vivo, po

| SMILES | MRT inf |
| --- | --- |
| CCN(CCN)Cc1cccc(Br)c1 | 2.96 h |

test system: not listed separately; assay: Oral bioavailability in ICR mouse at 25 mg/kg by LC-MS/MS analysis; assay type: ADME, organism-based; conditions: in vivo

| SMILES | bioavailability |
| --- | --- |
| CCN(CCN)Cc1cccc(Br)c1 | 66.4% |
